≈ marks a conversion by molar mass, not a printed value.
How the values were obtained:
[1] = Approximate solubility of Sample 4 by solvent aliquot addition, visual inspection; post-solubility storage; format: physicochemical; conditions: for solubility: thermodynamic from solid
Description: Weighed samples of MRZ, Sample 4 were treated with aliquots of the test solvents or solvent mixtures at ambient temperature. Complete dissolution of the test material was determined by visual inspection. Solubility was estimated based on the total solvent volume used to provide complete dissolution. The actual solubility may be greater than the value calculated because of the use of solvent aliquots that were too large or due to a slow rate of dissolution. If complete dissolution was not achieved during the experiment, the solubility is expressed as “less than”. If complete dissolution was achieved by only one aliquot addition, the value is reported as “larger than”. As set forth in Table-9, the ratio of solvent mixtures are given by volume. Solubilities are estimated at ambient temperature and reported to the nearest mg/mL; if complete dissolution was not achieved, the value is reported as “<”; the actual solubility may be greater than the reported value due to the use of solvent aliquots that were too large or due to a slow rate of dissolution. Post-solubility samples were stored at 2-8° C. for 15-16 days followed by 1 day at ambient storage before visual inspection for precipitation. Post-solubility samples were visually inspected after 2-3 days of ambient storage. Formation system A is: 55% propylene glycol+5% ethanol+40% citrate buffer (10 mM; pH 5). Formation system B is: 14/86 (v/v) H2O/tert-butyl alcohol containing 30 mg/mL sucrose, and titrated with HCl to pH 3.2±0.2.

[2] = Thermogravimetric analysis (TGA); format: physicochemical
Description: TGA data were collected on a TA Instruments Q500 TGA, equipped with a 16-position auto-sampler. The instrument was temperature calibrated using certified Alumel™ and Nickel. Typically 5-10 mg of each sample was loaded onto a pre-tared aluminum DSC pan and heated at 10° C./min from ambient temperature to 350° C. A nitrogen purge at 60 ml/min was maintained over the sample.
TG analyses were performed using a TA Instruments Q5000 IR thermogravimetric analyzer. Temperature calibration was performed using nickel and Alumel™. Each sample was placed in an aluminum pan. The sample was hermetically sealed, the lid pierced, then inserted into the TG furnace. The furnace was heated under nitrogen.

## C[C@@]12OC(=O)[C@]1([C@@H](O)[C@@H]1C=CCCC1)NC(=O)[C@@H]2CCCl [Sample 4, marizomib]
[1]; aqueous with cosolvent or surfactant or cyclodextrin, Formulation System A (55% propylene glycol + 5% EtOH + 40% citrate buffer 10 mM pH 5), ambient temperature
  solubility: < 1 mg/mL
[1]; aqueous with cosolvent or surfactant or cyclodextrin, Formulation System B (14/86 v/v H2O/tBA, 30 mg/ml sucrose, pH 3.2), ambient temperature
  solubility: 6 mg/mL (≈ 19.1 mM)
[1]; organic solvent or mixture, 1-propanol, ambient temperature
  solubility: 2 mg/mL (≈ 6.37 mM)
[1]; organic solvent or mixture, 2,2,2-trifluoroethanol, ambient temperature
  solubility: < 1 mg/mL
[1]; organic solvent or mixture, 2-Me THF, ambient temperature
  solubility: 32 mg/mL (≈ 102 mM)
[1]; organic solvent or mixture, 20:80 2-MeTHF/MeOAc (v/v), ambient temperature
  solubility: 34 mg/mL (≈ 108 mM)
[1]; organic solvent or mixture, 20:80 CHCl3/DCM (v/v), ambient temperature
  solubility: 3 mg/mL (≈ 9.56 mM)
[1]; organic solvent or mixture, 20:80 MEK/IPA (v/v), ambient temperature
  solubility: 10 mg/mL (≈ 31.9 mM)
[1]; organic solvent or mixture, 20:80 MEK/MIBK (v/v), ambient temperature
  solubility: 12 mg/mL (≈ 38.2 mM)
[1]; organic solvent or mixture, 20:80 NMP/1-propanol (v/v), ambient temperature
  solubility: 19 mg/mL (≈ 60.6 mM)
[1]; organic solvent or mixture, 20:80 NMP/IPA (v/v), ambient temperature
  solubility: 19 mg/mL (≈ 60.6 mM)
[1]; organic solvent or mixture, 20:80 THF/nitromethane (v/v), ambient temperature
  solubility: 15 mg/mL (≈ 47.8 mM)
[1]; organic solvent or mixture, 25:75 ACN/MTBE (v/v), ambient temperature
  solubility: 10 mg/mL (≈ 31.9 mM)
[1]; organic solvent or mixture, 25:75 DMF/anisole (v/v), ambient temperature
  solubility: 17 mg/mL (≈ 54.2 mM)
[1]; organic solvent or mixture, 50:50 EtOAc/cyclohexane (v/v), ambient temperature
  solubility: 4 mg/mL (≈ 12.7 mM)
[1]; organic solvent or mixture, 50:50 EtOAc/isooctane (v/v), ambient temperature
  solubility: 2 mg/mL (≈ 6.37 mM)
[1]; organic solvent or mixture, 50:50 MeOH/Et2O (v/v), ambient temperature
  solubility: 21 mg/mL (≈ 66.9 mM)
[1]; organic solvent or mixture, 50:50 THF/hexanes (v/v), ambient temperature
  solubility: 21 mg/mL (≈ 66.9 mM)
[1]; organic solvent or mixture, 50:50 acetone/heptane (v/v), ambient temperature
  solubility: 12 mg/mL (≈ 38.2 mM)
[1]; organic solvent or mixture, 50:50 acetone/iso-octane (v/v), ambient temperature
  solubility: 12 mg/mL (≈ 38.2 mM)
[1]; organic solvent or mixture, ACN, ambient temperature
  solubility: 10 mg/mL (≈ 31.9 mM)
[1]; organic solvent or mixture, CHCl3, ambient temperature
  solubility: 2 mg/mL (≈ 6.37 mM)
[1]; organic solvent or mixture, DCM, ambient temperature
  solubility: 2 mg/mL (≈ 6.37 mM)
[1]; organic solvent or mixture, DMSO, ambient temperature
  solubility: > 83 mg/mL
[1]; organic solvent or mixture, EtOAc, ambient temperature
  solubility: 15 mg/mL (≈ 47.8 mM)
[1]; organic solvent or mixture, Formic acid, ambient temperature
  solubility: 15 mg/mL (≈ 47.8 mM)
[1]; organic solvent or mixture, IPA, ambient temperature
  solubility: 6 mg/mL (≈ 19.1 mM)
[1]; organic solvent or mixture, MEK, ambient temperature
  solubility: 33 mg/mL (≈ 105 mM)
[1]; organic solvent or mixture, MIBK, ambient temperature
  solubility: 11 mg/mL (≈ 35.1 mM)
[1]; organic solvent or mixture, MeOAc, ambient temperature
  solubility: 20 mg/mL (≈ 63.7 mM)
[1]; organic solvent or mixture, NMP, ambient temperature
  solubility: 5 mg/mL (≈ 15.9 mM)
[1]; organic solvent or mixture, THF, ambient temperature
  solubility: 49 mg/mL (≈ 156 mM)
[1]; organic solvent or mixture, [EMIm][Cl], ambient temperature
  solubility: < 2 mg/mL
[1]; organic solvent or mixture, [EMIm][NTF2], ambient temperature
  solubility: 1 mg/mL (≈ 3.19 mM)
[1]; organic solvent or mixture, acetic acid, ambient temperature
  solubility: 10 mg/mL (≈ 31.9 mM)
[1]; organic solvent or mixture, acetone, ambient temperature
  solubility: 39 mg/mL (≈ 124 mM)
[1]; organic solvent or mixture, anisole, ambient temperature
  solubility: 2 mg/mL (≈ 6.37 mM)
[1]; organic solvent or mixture, cyclohexanone, ambient temperature
  solubility: 22 mg/mL (≈ 70.1 mM)
[1]; organic solvent or mixture, dioxane, ambient temperature
  solubility: 20 mg/mL (≈ 63.7 mM)
[1]; organic solvent or mixture, nitromethane, ambient temperature
  solubility: 2 mg/mL (≈ 6.37 mM)
[1]; organic solvent or mixture, pyridine, ambient temperature
  solubility: 36 mg/mL (≈ 115 mM)
[1]; organic solvent or mixture, tert-butanol, ambient temperature
  solubility: 3 mg/mL (≈ 9.56 mM)
[1]; post-solubility sample in 1-propanol
  Precipitates formed during storage?: no
[1]; post-solubility sample in 2-Me THF
  Precipitates formed during storage?: no
[1]; post-solubility sample in 20:80 2-MeTHF/MeOAc
  Precipitates formed during storage?: no
[1]; post-solubility sample in 20:80 CHCl3/DCM
  Precipitates formed during storage?: no
[1]; post-solubility sample in 20:80 MEK/IPA
  Precipitates formed during storage?: no
[1]; post-solubility sample in 20:80 MEK/MIBK
  Precipitates formed during storage?: no
[1]; post-solubility sample in 20:80 NMP/1-propanol
  Precipitates formed during storage?: no
[1]; post-solubility sample in 20:80 NMP/IPA
  Precipitates formed during storage?: no
[1]; post-solubility sample in 20:80 THF/nitromethane
  Precipitates formed during storage?: no
[1]; post-solubility sample in 25:75 ACN/MTBE
  Precipitates formed during storage?: no
[1]; post-solubility sample in 25:75 DMF/anisole
  Precipitates formed during storage?: no
[1]; post-solubility sample in 50:50 EtOAc/cyclohexane
  Precipitates formed during storage?: no
[1]; post-solubility sample in 50:50 EtOAc/isooctane
  Precipitates formed during storage?: no
[1]; post-solubility sample in 50:50 MeOH/Et2O
  Precipitates formed during storage?: no
[1]; post-solubility sample in 50:50 THF/hexanes
  Precipitates formed during storage?: no
[1]; post-solubility sample in 50:50 acetone/heptane
  Precipitates formed during storage?: no
[1]; post-solubility sample in 50:50 acetone/iso-octane
  Precipitates formed during storage?: no
[1]; post-solubility sample in ACN
  Precipitates formed during storage?: no
[1]; post-solubility sample in CHCl3
  Precipitates formed during storage?: yes
[1]; post-solubility sample in DCM
  Precipitates formed during storage?: no
[1]; post-solubility sample in DMSO
  Precipitates formed during storage?: no
[1]; post-solubility sample in EtOAc
  Precipitates formed during storage?: no
[1]; post-solubility sample in Formic acid
  Precipitates formed during storage?: no
[1]; post-solubility sample in Formulation System B
  Precipitates formed during storage?: no
[1]; post-solubility sample in IPA
  Precipitates formed during storage?: no
[1]; post-solubility sample in MEK
  Precipitates formed during storage?: yes (small amount)
[1]; post-solubility sample in MIBK
  Precipitates formed during storage?: no
[1]; post-solubility sample in MeOAc
  Precipitates formed during storage?: no
[1]; post-solubility sample in NMP
  Precipitates formed during storage?: no
[1]; post-solubility sample in THF
  Precipitates formed during storage?: no
[1]; post-solubility sample in acetic acid
  Precipitates formed during storage?: no
[1]; post-solubility sample in acetone
  Precipitates formed during storage?: no
[1]; post-solubility sample in anisole
  Precipitates formed during storage?: no
[1]; post-solubility sample in cyclohexanone
  Precipitates formed during storage?: no
[1]; post-solubility sample in dioxane
  Precipitates formed during storage?: no
[1]; post-solubility sample in nitromethane
  Precipitates formed during storage?: no
[1]; post-solubility sample in pyridine
  Precipitates formed during storage?: no
[1]; post-solubility sample in tert-butanol
  Precipitates formed during storage?: no
[2]
  TGA weight loss prior to decomposition: negligible weight loss prior to decomp
[2]; Sample 4 prior to testing
  TGA (onset, decomp.): 168 °C (onset, decomp.)
[2]; as stated in cocrystal discussion
  TGA: decomposition after: approximately 150 °C

## C[C@@]12OC(=O)[C@]1([C@@H](O)[C@@H]1C=CCCC1)NC(=O)[C@@H]2CCCl [marizomib]
[2]; solids from 2-pyrrolidone (1:1) cocrystal experiment, from 27.1° C. to 92.0° C.
  weight loss (TGA): 5.0%
[2]; solids from Melamine (1:1) cocrystal experiment, from 30.2° C. to 104.0° C.
  weight loss (TGA): 10.3%
[2]; solids from Melamine (1:1) cocrystal experiment, from 30.2° C. to 146.0° C.
  weight loss (TGA): C. 21.1%

From patent US10703760B2, “Morphic forms of marizomib and uses thereof” (Celgene International II Sàrl, priority 2016, dated 2020)
